pIC50, pKi: −log10 of the molar value.
Experiments:
IDO1 [1] = molecular target: T1, IDO1 (Homo sapiens, UniProt P14902); experiment: biochemical; conditions: for mode of inhibition: L-tryptophan 7.5 μM to 30 μM, Fig. 4
IDO1 [2] = molecular target: T1, IDO1; experiment: IDO1 absorbance spectra; format: binding; conditions: compound 20 μM, rhIDO1 3 μM; for absorbance of ferric-IDO1 at 404 nm: compared with control; for absorbance of ferrous-IDO1 at 428 nm: sodium dithionite
[3] = molecular target: rhTDO2 (purified TDO2 enzyme) (Homo sapiens, UniProt P48775); experiment: Enzymatic assay of TDO2; format: biochemical
[4] = molecular target: human TDO2 in HEK 293 cells (Homo sapiens, UniProt P48775); experiment: Cell-based assay of TDO2 activity
[5] = molecular target: human IDO1 in HEK 293 cells (Homo sapiens, UniProt P14902); experiment: Cell-based assay of IDO1 activity; conditions: for inhibition of the cellular activity of IDO1: HEK 293 cells overexpressing human IDO1, kynurenine released, Fig. 2c
Sequence of human IDO1 in HEK 293 cells (P14902 whole entry): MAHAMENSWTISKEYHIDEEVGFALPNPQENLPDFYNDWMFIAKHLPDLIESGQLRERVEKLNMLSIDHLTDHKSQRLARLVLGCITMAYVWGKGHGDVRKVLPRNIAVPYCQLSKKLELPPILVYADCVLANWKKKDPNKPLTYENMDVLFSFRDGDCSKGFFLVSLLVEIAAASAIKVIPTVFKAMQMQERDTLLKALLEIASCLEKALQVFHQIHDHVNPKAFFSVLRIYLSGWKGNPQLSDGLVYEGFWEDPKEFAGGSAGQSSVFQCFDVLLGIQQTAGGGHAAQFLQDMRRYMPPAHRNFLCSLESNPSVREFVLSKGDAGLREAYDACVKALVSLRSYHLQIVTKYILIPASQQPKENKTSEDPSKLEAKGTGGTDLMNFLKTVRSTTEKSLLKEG

[6] = molecular target: recombinant human IDO1 (rhIDO1) (Homo sapiens, UniProt P14902); experiment: Enzymatic assay of IDO1; format: biochemical
Sequence of recombinant human IDO1 (rhIDO1) (P14902 whole entry): as above

HEK 293 cells = experiment: Cell viability assay; format: cell-based, human; conditions: conditions used for the kynurenine assay

T1 sequence (P14902 whole entry): as above

inhibition at 20 µM ([6]; read-out: IDO1 inhibitory activity of tanshinone derivatives)	SMILES	pKi (IDO1 [1])	mode of inhibition (IDO1 [1])	absorbance of ferric-IDO1 at 404 nm (IDO1 [2])	absorbance of ferrous-IDO1 at 428 nm (IDO1 [2])	pIC50 [3]	pIC50 [4]	pIC50 [5]	inhibition of the cellular activity of IDO1 [5]	pIC50 [6]	effect on cell viability (CCK8) (HEK 293 cells)
	CC(C)=CC[C@@H](O)C1=CC(=O)c2c(O)ccc(O)c2C1=O [Compound 7, shikonin]	5.85	uncompetitive inhibition	decreased	remained unchanged	5.30	5.85	5.66	101.8%	6.01	slightly reduced cell viability
	Cc1cccc2c3c(ccc12)C1=C(C(=O)C3=O)[C@@H](C)CO1 [Compound 8, dihydrotanshinone I]	5.55	uncompetitive inhibition	decreased	remained unchanged	5.29	4.88	4.59	83.6%	5.55	no effect on cell viability
> 40%	C[C@H]1COC2=C1C(=O)C(=O)c1c2ccc2c1CCCC2(C)C [Compound B06F5, cryptotanshinone]										

From article PMC7468576 (Acta Pharmacologica Sinica, 2019)
